# From patent publication EP0845210A1, “New herbicidal compositions” (RHONE-POULENC AGRICULTURE LTD., priority 1994, dated 1996)
# Assays:
# Format in all cases: in vivo
# maize = experiment: Procedure C: field trial of crop phytotoxicity, visual assessment 40 days after sowing
# Description: The experiments were carried out pre-emergence of the weed species at various research farm locations throughout the Mid-West corn belt in United States of America with Compounds A and D (each formulated as wettable powders) and metolachlor (formulated as a 96% emulsifiable concentrate), alachlor (formulated as a 48% emulsifiable concentrate) and dimethenamid (formulated as a 90% emulsifiable concentrate).
# Various mixtures of the above 4-benzoylisoxazoles and chloroacetamides were weighed out and dissolved in water to give a solution containing the appropriate concentrations and ratios of active ingredients.
# The solution was mixed for one hour and applied at a spray volume of 231 litres/hectare to a 3 metre by 5 metre test plot comprising the maize seed which were sown 2 days earlier. 3 replicates were performed. The experiments were performed using seven varities of maize (except for the mixtures comprising alachlor at 1120 g per hectare, where four varieties were used). A control plot was sprayed with a solution not containing test compound. Visual assessment of phytotoxicity was made 40 days after sowing the maize seeds based on a comparison with the control plot. Table F1
# Echinochloa crus-galli = experiment: Procedure A: pre-emergence glasshouse pot test, growth reduction assessed two weeks after treatment
# Text: (§1) Seed of the various species of broad-leaf or grass weeds were sown in unsterilised clay loam soil in 7 centimetre by 7 centimetre plastic plant pots. The pots were watered and allowed to drain. The soil surface was then sprayed with ranges of concentrations of either the individual herbicide or mixtures of two herbicides in various proportions, dissolved in a 50:50 by volume solution of acetone and water, using a track sprayer set to deliver the equivalent of 290 l/ha. All herbicides were used as unformulated technical materials except dimethenamid, which was used as the commercial formulation "Frontiere" (trade mark), a flowable containing 900g/l active ingredient; and alachlor, which was used as "Lasso" (trade mark), an emulsifiable concentrate formulation containing 480g/l active ingredient.
# (§2) Treated pots were placed at random in four replicate blocks per treatment for each plant species. The pots were held, in a glasshouse, standing on moist capillary matting, under lights and with overhead watering twice daily.
# (§3) Two weeks after treatment the percent reduction in plant growth, compared to an untreated control, was assessed.
# (§4) Mean percent reduction in plant growth was calculated for each treatment. Dose/mean response was plotted on Log concentration/Probability graph paper, and lines fitted by eye. For herbicide mixtures a dose/response line for the first herbicide was drawn for each dose rate of the second herbicide and a dose/response line for the second herbicide was drawn for each dose rate of the first herbicide. The doses representing a 90% reduction in plant growth (LD90's) were read from these lines and plotted on graphs whose axes were dose rates of the two herbicides. The line joining these points is an Isobole i.e. a line joining points (mixtures) of equal activity, as described by P.M.L. Tammes, Neth. J. Plant Path. 70 (1964) : 73-80. A line was also drawn joining the LD90's of the individual components of the mixture. This line represents the theoretical isobole if the effect of the two components is additive i.e. there is no interaction between them. Isoboles falling below this line indicate synergy between the components while lines lying above it indicate antagonism.
# (§5) In the tables that follow 'dose' represents the dose rate in grammes per hectare of the active ingredient used; and the figures for the weed control are percentages reduction in growth when compared with the untreated controls.
# Digitaria sanguinalis = experiment: as above
# Text: as §1, §2, §3, §4, §5
# Setaria viridis = experiment: as above; conditions: Table A1
# Text: as §1, §2, §3, §4, §5
# Amaranthus retroflexus = experiment: as above; conditions: Table A2
# Text: as §1, §2, §3, §4, §5
# maize (Zea mays) = experiment: Procedure D: pre-emergence field trial (Volga, Brookings), crop phytotoxicity about 26 days after treatment; conditions: A 37.5 g/ha alone
# Description: The following experiments were carried out pre-emergence of the weed species. Compound A, formulated as a wettable dispersible granule as described in Example 1 herebelow (750g per kilogram) and each acetochlor (used as the commercially available formulation "Harness" (trade mark), an emulsifiable concentrate containing 960g of acetochlor per kilogram, and which also contains the safening agent flurazole, metolachlor (used as the commercially available formulation "Duelor" (trade mark), an emulsifiable concentrate emulsifiable concentrate containing 960g of metolachlor per kilogram), alachlor (used as the commercially available formulation "Lasso" (trade mark), an emulsifiable concentrate containing 480g of alachlor per kilogram) and dimethenamid (used as the commercially available formulation "Frontiere" (trade mark), a flowable containing 900g/l active ingerident) were dissolved in water and sprayed at a volume rate of 187 litres/hectare on various test plots (10 square meters in area) either alone or in mixtures. The soil was a clay-loam, with a pH of 7, the experiments being conducted in June in Volga, Brookings, U.S.A. The various weed and crop species were drill sown and the various compositions were applied on the same day after drilling. Three replicates were performed and the efficacy of the various mixtures were determined by visual assessment of the percentage phytotoxicity in comparison with an untreated control. Assessment was made about 26 days after treatment. In the Tables which follow the dose is expressed in grammes per hectare and the figures in brackets represent the expected results according to the Colby formula.
structure (smiles),measurement,setting,value
"CS(=O)(=O)c1cc(C(F)(F)F)ccc1C(=O)c1cnoc1C1CC1 [Compound A, 5-cyclopropyl-4-(2-methylsulphonyl-4-trifluoromethyl)benzoylisoxazole]",Visual assessment of phytotoxicity,maize; A 78 g/ha alone,0
same,Visual assessment of phytotoxicity,maize; A 105 g/ha alone,0
same,percent reduction in plant growth,"Echinochloa crus-galli; A 1 g/ha alone, Table B2",12.5%
same,percent reduction in plant growth,"Echinochloa crus-galli; A 1 g/ha alone, Table D2",11.25%
same,percent reduction in plant growth,"Echinochloa crus-galli; A 2 g/ha alone, Table B2",6.25%
same,percent reduction in plant growth,"Echinochloa crus-galli; A 2 g/ha alone, Table C2",3.75%
same,percent reduction in plant growth,"Echinochloa crus-galli; A 2 g/ha alone, Table D2",7.5%
same,percent reduction in plant growth,"Echinochloa crus-galli; A 4 g/ha alone, Table B2",1.25%
same,percent reduction in plant growth,"Echinochloa crus-galli; A 4 g/ha alone, Table C2",2.5%
same,percent reduction in plant growth,"Echinochloa crus-galli; A 4 g/ha alone, Table D2",15%
same,percent reduction in plant growth,"Echinochloa crus-galli; A 8 g/ha alone, Table B2",61.25%
same,percent reduction in plant growth,"Echinochloa crus-galli; A 8 g/ha alone, Table C2",32.5%
same,percent reduction in plant growth,"Echinochloa crus-galli; A 8 g/ha alone, Table D2",15%
same,percent reduction in plant growth,"Echinochloa crus-galli; A 16 g/ha alone, Table B2",71.25%
same,percent reduction in plant growth,"Echinochloa crus-galli; A 16 g/ha alone, Table C2",60%
same,percent reduction in plant growth,"Echinochloa crus-galli; A 16 g/ha alone, Table D2",62.5%
same,percent reduction in plant growth,"Echinochloa crus-galli; A 32 g/ha alone, Table B2",75%
same,percent reduction in plant growth,"Echinochloa crus-galli; A 32 g/ha alone, Table C2",90%
same,percent reduction in plant growth,"Echinochloa crus-galli; A 32 g/ha alone, Table D2",86%
same,percent reduction in plant growth,"Echinochloa crus-galli; A 64 g/ha alone, Table B2",93.5%
same,percent reduction in plant growth,"Echinochloa crus-galli; A 64 g/ha alone, Table C2",97%
same,percent reduction in plant growth,"Echinochloa crus-galli; A 64 g/ha alone, Table D2",87.5%
same,percent reduction in plant growth,"Echinochloa crus-galli; A 128 g/ha alone, Table B2",93.75%
same,percent reduction in plant growth,"Echinochloa crus-galli; A 128 g/ha alone, Table C2",99.75%
same,percent reduction in plant growth,"Echinochloa crus-galli; A 128 g/ha alone, Table D2",99.5%
same,percent reduction in plant growth,"Echinochloa crus-galli; A 256 g/ha alone, Table D2",92.5%
same,percent reduction in plant growth,"Digitaria sanguinalis; A 1 g/ha alone, Table B1",18.75%
same,percent reduction in plant growth,"Digitaria sanguinalis; A 1 g/ha alone, Table D1",0%
same,percent reduction in plant growth,"Digitaria sanguinalis; A 2 g/ha alone, Table B1",20%
same,percent reduction in plant growth,"Digitaria sanguinalis; A 2 g/ha alone, Table C1",20%
same,percent reduction in plant growth,"Digitaria sanguinalis; A 2 g/ha alone, Table D1",12.5%
same,percent reduction in plant growth,"Digitaria sanguinalis; A 4 g/ha alone, Table B1",33.75%
same,percent reduction in plant growth,"Digitaria sanguinalis; A 4 g/ha alone, Table C1",40%
same,percent reduction in plant growth,"Digitaria sanguinalis; A 4 g/ha alone, Table D1",17.5%
same,percent reduction in plant growth,"Digitaria sanguinalis; A 8 g/ha alone, Table B1",67.5%
same,percent reduction in plant growth,"Digitaria sanguinalis; A 8 g/ha alone, Table C1",7.5%
same,percent reduction in plant growth,"Digitaria sanguinalis; A 8 g/ha alone, Table D1",61.25%
same,percent reduction in plant growth,"Digitaria sanguinalis; A 16 g/ha alone, Table B1",50%
same,percent reduction in plant growth,"Digitaria sanguinalis; A 16 g/ha alone, Table C1",50%
same,percent reduction in plant growth,"Digitaria sanguinalis; A 16 g/ha alone, Table D1",67.5%
same,percent reduction in plant growth,"Digitaria sanguinalis; A 32 g/ha alone, Table B1",73.5%
same,percent reduction in plant growth,"Digitaria sanguinalis; A 32 g/ha alone, Table C1",74.75%
same,percent reduction in plant growth,"Digitaria sanguinalis; A 32 g/ha alone, Table D1",66%
same,percent reduction in plant growth,"Digitaria sanguinalis; A 64 g/ha alone, Table B1",87.5%
same,percent reduction in plant growth,"Digitaria sanguinalis; A 64 g/ha alone, Table C1",80%
same,percent reduction in plant growth,"Digitaria sanguinalis; A 64 g/ha alone, Table D1",95%
same,percent reduction in plant growth,"Digitaria sanguinalis; A 128 g/ha alone, Table C1",93.5%
same,percent reduction in plant growth,"Digitaria sanguinalis; A 128 g/ha alone, Table D1",76.25%
same,percent reduction in plant growth,"Digitaria sanguinalis; A 256 g/ha alone, Table D1",98.75%
same,percent reduction in plant growth,Setaria viridis; A 0.5 g/ha alone,15%
same,percent reduction in plant growth,Setaria viridis; A 1 g/ha alone,5%
same,percent reduction in plant growth,Setaria viridis; A 2 g/ha alone,47.5%
same,percent reduction in plant growth,Setaria viridis; A 4 g/ha alone,33.75%
same,percent reduction in plant growth,Setaria viridis; A 8 g/ha alone,38.75%
same,percent reduction in plant growth,Setaria viridis; A 16 g/ha alone,53.75%
same,percent reduction in plant growth,Setaria viridis; A 32 g/ha alone,70%
same,percent reduction in plant growth,Setaria viridis; A 64 g/ha alone,76%
same,percent reduction in plant growth,Setaria viridis; A 128 g/ha alone,88.75%
same,percent reduction in plant growth,Amaranthus retroflexus; A 1 g/ha alone,12.5%
same,percent reduction in plant growth,Amaranthus retroflexus; A 2 g/ha alone,51.25%
same,percent reduction in plant growth,Amaranthus retroflexus; A 4 g/ha alone,12.5%
same,percent reduction in plant growth,Amaranthus retroflexus; A 8 g/ha alone,87.5%
same,percent reduction in plant growth,Amaranthus retroflexus; A 16 g/ha alone,92.5%
same,percent reduction in plant growth,Amaranthus retroflexus; A 32 g/ha alone,99.75%
same,percent reduction in plant growth,Amaranthus retroflexus; A 64 g/ha alone,99.75%
same,percentage phytotoxicity,maize (Zea mays),0%
